Data on one compound can be found in paper PMC8536644, “Enigmatic mechanism of the N-vinylpyrrolidone hepatocarcinogenicity in the rat” (Archives of Toxicology, 2021).

Values joined by “and” are separate entries in the source; they are usually repeats but may differ in a detail not shown here. Equal entries are not always repeated.

One data set relates to rat lung cells. Briefly: Comet assay in presence of FPG, lung. The following applies: with FPG, 5 days; for TI (%), mean of medians from 2 slides: individual animals. The protocol: Animals were anesthetized by 3.5% isoflurane (approximately 3 min, evaporator Dräger Vapor 19.3) and then killed by cervical dislocation. The liver was removed and its left lateral lobe used for the Comet assay. The remainder of the liver was washed in saline and then in two aliquots shock frozen in liquid nitrogen and stored at − 80 °C for later examinations. Subsequently the lung was removed from the dead animal. Its left lobe was used for the Comet assay and the remainder treated as described above for the liver. Thereafter the femora were removed for the preparation of the bone marrow.
The Comet assay was performed under alkaline conditions according to the principles described by Singh et al. ([1988]) and Tice et al. ([2000]).
Liver and lung cells were obtained essentially as described by Hartmann et al. ([2004]) and by the Japanese Center for the Validation of Alternative Methods (JaCVAM [2009]). Single cells were obtained within 1 h after killing of the animals in order to minimize DNA damage during the preparation.
The organ parts (see above) were washed in mincing buffer (50 mM EDTA in HBSS [without Ca^2+ and Mg^2+] pH 7.5: DMSO 9:1 (v/v), the latter added shortly before use, stored at 4 °C), cut into 1 to 2-mm pieces in ice-cold mincing buffer and transferred to a cell sieve with 70-µm pores. The viability of the cell suspension was evaluated by the Trypan Blue Assay (Strober [2001]).
100 µL of the obtained cell suspension was mixed at 37 °C with 900 µL Low Melting Agarose (LMA) (0.7% agarose in phosphate-buffered saline [PBS] [Biochrom, Berlin, Germany] without Ca^2+ and Mg^2+). 100 µL of this mixture was transferred to a slide, which had been coated with Normal Melting Agarose (NMA) (0.6% agarose in PBS without Ca^2+ and Mg^2+). The slides were protected with a cover slip and the agarose was hardened at approximately 4 °C. The cover slips were then removed and the slides put over night at 4 °C into lysis buffer (2.5 M NaCl, 125 mM NaOH, 127 mM EDTA, 10 mM Tris/NaOH, pH 10; 1% Triton X-100 and 10% DMSO (v/v), the latter two added before use) in order to lyse the cell membrane, nuclear membrane and remove the histone.
The then following procedures were performed in a shaded room to minimize UV-mediated DNA damage during the procedures.
Those slides which were destined to be treated with the DNA base excision repair enzyme FPG (Sigma Aldrich, Steinheim, Germany) were washed (3 times for 5 min) with FPG buffer (0.04 M HEPES, 0.5 mM EDTA, 0.1 M KCl, pH 8; add shortly before use bovine serum albumin [BSA] to a final concentration of 0.02%). Subsequently 50 µL FPG-enzyme-buffer (prepared shortly prior to use by 30-fold dilution of the following suspension in FPG buffer: 7 µL FPG-enzyme (14 U) and 70 µL glycerol in 623 µL FPG-Puffer, stored at − 80 °C) was pipetted on the slide which was covered with a cover slide and incubated for 30 min at 37 °C while being placed on a humid filter paper. After hardening of the agarose cover slips were removed.
Remaining lysis buffer or FPG buffer was removed by immersing/washing the slides in PBS (without Ca^2+ and Mg^2+).

The next data set has as its system CYP2B. Briefly: PROD assay, lung microsomes. The following applies: 20 ppm. It is filed as in vivo, rat. How it is done:
The alkoxyresorufin dealkylase (AROD) assays were based on the method by Burke et al. ([1994]).
The frozen livers and lungs of the NVP-treated male Wistar rats were thawed and washed with isotonic (0.9%) NaCl solution. The tissues were ice-cooled homogenized (1 g tissue: 3 mL 0.25 M saccharose in 1 mM disodium EDTA, pH 7.4) and centrifuged (9000 g, 15 min, 4 °C). The supernatant fraction was centrifuged (100 000 g, 60 min, 4 °C). The resulting supernatant fraction was used for the palmitoyl-CoA-oxidase assay described further down. The pellet was taken up in 150 mM aqueous KCl solution, recentrifuged (100 000 g, 60 min, 4 °C) and the pellet taken up in 1 mL/g liver or 0.5 mL/g lung resuspension buffer (1 mM GSH, 1 mM disodium EDTA, 4 mM MgCl2, 0.1 M KH2PO4, pH 7.5 and 4% glycerol). […]
For determination of the enzyme activities in triplicates, 85 µL master mix (100 mM TrisHCl pH 7.5, 2 mM 5’AMP, 5 mM G-6-P, 10 U G-6-P-DH, 10 mM Dicumarol, 10 mM MgCl2, either 2 µM EROD or 10 µM PROD or 5 µM BROD) was added to 10 µL microsomal fraction (1 mg protein/mL). […] The activity was determined by measuring the increase of the fluorescence (excitation at 550 nm, emission at 585 nm) due to resorufin formation compared with resorufin standards, which had been prepared by dissolving tenfold concentrated solutions in DMSO, which were then diluted tenfold in 100 mM TrisHCl pH 7.5.

Turning to `C=CN1CCCC1=O` [NVP, N-vinylpyrrolidone], the “Hedgehogs/100 cells (mean ± SD)” value in the data set with rat lung cells (female, 5 ppm inhalation) is given as 3 ± 2 /100 cells; in the data set on rat lung cells (female, 10 ppm inhalation), 1 ± 1 /100 cells; in the data set on rat lung cells (female, 20 ppm inhalation) it was 3 ± 1 /100 cells; with rat lung cells (male, 5 ppm inhalation), 2 ± 2 /100 cells; in the data set with rat lung cells (male, 10 ppm inhalation), 4 ± 4 /100 cells; in the data set on rat lung cells (male, 20 ppm inhalation) it was 1 ± 1 /100 cells. The “TI (%) (mean ± SD)” value in the data set on rat lung cells (female, 5 ppm inhalation) was determined as 7.8 ± 1.30%; with rat lung cells (female, 10 ppm inhalation) it was 7.2 ± 1.81%; in the data set with rat lung cells (female, 20 ppm inhalation), 7.4 ± 2.90%; with rat lung cells (male, 5 ppm inhalation), 6.4 ± 0.69%; in the data set with rat lung cells (male, 10 ppm inhalation) it was 7.9 ± 3.21%; in the data set with rat lung cells (male, 20 ppm inhalation), 3.9 ± 0.72%. The “TI (%), mean of medians from 2 slides” value in the data set on rat lung cells (female, 5 ppm inhalation) is 8.6% and 7.0% and 6.8% and 10.1% and 7.1% and 7.3%; with rat lung cells (female, 10 ppm inhalation), 8.7% and 8.1% and 7.9% and 8.4% and 6.0% and 4.0%; with rat lung cells (female, 20 ppm inhalation) it was 6.2% and 8.6% and 10.2% and 2.3% and 7.7% and 9.7%; in the data set on rat lung cells (male, 5 ppm inhalation), 6.1% and 7.5% and 6.6% and 5.5% and 6.5%; in the data set with rat lung cells (male, 10 ppm inhalation) it was 12.0% and 3.6% and 6.0% and 7.3% and 7.2% and 11.4%; in the data set on rat lung cells (male, 20 ppm inhalation), 3.8% and 3.5% and 5.2% and 3.6% and 3.3% and 4.2%. For the same compound, the “PROD activity in lung microsomes vs vehicle control” value with CYP2B is “not significantly different”.
